The assay deals with T1, p70S6K (Homo sapiens, UniProt P23443, T412E).
T1 construct: human p70S6 kinase domain residues 1-421, containing a T412E mutation; made in house
The assay can be described thus: p70S6 Kinase Assay (Luciferase-Coupled Chemiluminescent Kinase assay, LCCA). The following applies: human p70S6 kinase domain residues 1-421, T412E; 5 μM ATP; read-out: p70S6K IC50. The format is biochemical. The method, then:
Kinase activity and compound inhibition are investigated using one or more of the three assay formats described below. The ATP concentrations for each assay are selected to be close to the Michaelis-Menten constant (KM) for each individual kinase. Dose-response experiments are performed at 10 different inhibitor concentrations in a 384-well plate format. […] Y=Min+(Max−Min)/(1+(X/IC50)^H) Equation (2) p70S6 Kinase Assay
Biochemical activity of p70S6 kinase was assessed using a Luciferase-Coupled Chemiluminescent Kinase assay (LCCA) format. Kinase activity was measured as the percent ATP remaining following the kinase reaction. Remaining ATP was detected by luciferase-luciferin-coupled chemiluminescence. […] The mixture is incubated at ambient temperature for 2 hours after which 20 μL luciferase-luciferin mix is added and the chemiluminescent signal read using a Wallac Victor^2 reader.

The structures appear in SMILES notation.

The text below walks through data of US7816353B2 (Exelixis, Inc., priority 2003, dated 2010).

T1 sequence (P23443 1-421 T412E): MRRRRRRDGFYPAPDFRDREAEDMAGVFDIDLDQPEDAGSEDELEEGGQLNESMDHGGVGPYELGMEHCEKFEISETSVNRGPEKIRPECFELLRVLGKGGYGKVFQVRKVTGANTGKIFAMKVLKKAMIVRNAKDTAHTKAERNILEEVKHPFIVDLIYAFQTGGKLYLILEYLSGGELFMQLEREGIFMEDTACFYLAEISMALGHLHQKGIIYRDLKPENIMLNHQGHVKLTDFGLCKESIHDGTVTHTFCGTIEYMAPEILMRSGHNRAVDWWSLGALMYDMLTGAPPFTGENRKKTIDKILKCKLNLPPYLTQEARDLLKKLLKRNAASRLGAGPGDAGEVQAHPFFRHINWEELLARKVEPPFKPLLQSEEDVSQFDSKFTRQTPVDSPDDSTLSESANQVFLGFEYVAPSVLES

By IC50 is commonly meant the point on the concentration scale where inhibition reaches its midpoint. Take `CNc1nc(NCC(=O)Nc2cccc(C(F)(F)F)c2)c(C#N)c(SC)n1` [Example 65, N^2-[5-cyano-2-(methylamino)-6-(methylthio)pyrimidin-4-yl]-N-[3-(trifluoromethyl)phenyl]glycinamide]: the 50% inhibitory concentration (IC50) is 500 to 2000 nM.
Turning to `CSc1nc(N)nc(N[C@@H](COCc2ccccc2)C(=O)Nc2cccc(C(F)(F)F)c2)c1C#N` [Example 183, N~2~-[2-amino-5-cyano-6-(methylthio)pyrimidin-4-yl]-O-(phenylmethyl)-N-[3-(trifluoromethyl)phenyl]-L-serinamide], the half-inhibitory concentration (IC50) is greater than 2000 nM.
Take `CSc1nc(N)nc(N[C@@H](C)C(=O)Nc2cccc(N)c2)c1C#N` [Example 124, N^2-[2-amino-5-cyano-6-(methylthio)pyrimidin-4-yl]-N-(3-aminophenyl)-L-alaninamide]: the IC50 was greater than 2000 nM.
For the molecule `CSc1nc(N)nc(N[C@@H](C)C(=O)Nc2cccc(C(F)(F)F)c2)c1C#N` [Example 60, N^2-[2-amino-5-cyano-6-(methylthio)pyrimidin-4-yl]-N-[3-(trifluoromethyl)phenyl]-L-alaninamide], the IC50 fell in the range of 500 to 2000 nM.
For `CCOc1nc(N)nc(N[C@@H](C)C(=O)Nc2cc(C(=O)N3CCN(C)CC3)cc(C(F)(F)F)c2)c1C#N` [Example 157, N~2~-[2-amino-5-cyano-6-(ethyloxy)pyrimidin-4-yl]-N-[3-[(4-methylpiperazin-1-yl)carbonyl]-5-(trifluoromethyl)phenyl]-L-alaninamide], the IC50 was greater than 2000 nM.
Turning to `COCCNc1nc(N[C@@H](C)C(=O)Nc2cccc(C(F)(F)F)c2)c(C#N)c(SC)n1` [Example 116], the IC50 was greater than 2000 nM.
On to `COc1nc(N)nc(N(C)[C@@H](C)C(=O)Nc2cccc(Br)c2)c1C#N` [Example 181, N~2~-[2-amino-5-cyano-6-(methyloxy)pyrimidin-4-yl]-N-(3-bromophenyl)-N~2~-methyl-L-alaninamide], for which the IC50 was greater than 2000 nM.
With `CCOc1nc(N)nc(N[C@@H](C)C(=O)Nc2cc(C(=O)NCCCN3CCCC3)cc(C(F)(F)F)c2)c1C#N` [Example 158, 3-({N-[2-amino-5-cyano-6-(ethyloxy)pyrimidin-4-yl]-L-alanyl}amino)-N-(3-pyrrolidin-1-ylpropyl)-5-(trifluoromethyl)benzamide], the IC50 is greater than 2000 nM.
For `Nc1nc(SCC(=O)Nc2cccc(C(F)(F)F)c2)c(CO)c(Sc2ccccc2)n1` [Example 52] the value was 50 to 500 nM; for `COCCNCCC[C@H](Nc1nc(N)nc(SC)c1C#N)C(=O)Nc1cccc(C(F)(F)F)c1` [Example 144, N~2~-[2-amino-5-cyano-6-(methylthio)pyrimidin-4-yl]-N~5~-[2-(methyloxy)ethyl]-N-[3-(trifluoromethyl)phenyl]-L-omithinamide], 500 to 2000 nM.
Regarding `CN(C)c1nc(N)nc(SCC(=O)Nc2cccc(C(F)(F)F)c2)c1C#N` [Example 66, 2-{[2-amino-5-cyano-6-(dimethylamino)pyrimidin-4-yl]thio}-N-[3-(trifluoromethyl)phenyl]acetamide], the IC50 fell in the range of 500 to 2000 nM.
Regarding `CSc1nc(N)nc(N[C@H](C)C(=O)Nc2cccc(C(F)(F)F)c2)c1C#N` [Example 83, N^2-[2-amino-5-cyano-6-(methylthio)pyrimidin-4-yl]-N-[3-(trifluoromethyl)phenyl]-D-alaninamide], the IC50 was greater than 2000 nM.
Turning to `CCCOc1nc(N)nc(N(C)[C@@H](C)C(=O)Nc2cccc(C(F)(F)F)c2)c1C#N` [Example 120, N^2-[2-amino-5-cyano-6-(propyloxy)pyrimidin-4-yl]-N^2-methyl-N-[3-(trifluoromethyl)phenyl]-L-alaninamide], the 50% inhibitory concentration (IC50) was greater than 2000 nM.
Take `CCOc1nc(N)nc(N[C@@H](CCC(=O)OCc2ccccc2)C(=O)Nc2cccc(C(F)(F)F)c2)c1C#N` [Example 165, phenylmethyl N~2~-[2-amino-5-cyano-6-(ethyloxy)pyrimidin-4-yl]-N-[3-(trifluoromethyl)phenyl]-L-apha-glutaminate]: the IC50 was greater than 2000 nM.
Consider `COc1nc(N)nc(N[C@@H](C)C(=O)Nc2cc(C(=O)NCCN(C)C)cc(C(F)(F)F)c2)c1C#N` [Example 190, 3-({N-[2-amino-5-cyano-6-(methyloxy)pyrimidin-4-yl]-L-alanyl}amino)-N-[2-(dimethylamino)ethyl]-5-(trifluoromethyl)benzamide], for which the 50% inhibitory concentration (IC50) was greater than 2000 nM.
Take `CCOc1nc(N)nc(N[C@@H](CN2CCOCC2)C(=O)Nc2cccc(C(F)(F)F)c2)c1C#N` [Example 193, N~2~-[2-amino-5-cyano-6-(ethyloxy)pyrimidin-4-yl]-3-morpholin-4-yl-N-[3-(trifluoromethyl)phenyl]-L-alaninamide]: the IC50 is greater than 2000 nM.
As for `CSc1nc(N)nc(N[C@@H](CCCN)C(=O)Nc2cccc(C(F)(F)F)c2)c1C#N` [Example 86, N^2-[2-amino-5-cyano-6-(methylthio)pyrimidin-4-yl]-N-[3-(trifluoromethyl)phenyl]-L-ornithinamide], the IC50 was greater than 2000 nM.
Turning to `CSc1nc(N)nc(OCC(=O)Nc2cccc(C(F)(F)F)c2)c1C=O` [Example 46, 2-{[2-amino-5-formyl-6-(methylthio)pyrimidin-4-yl]oxy}-N-[3-(trifluoromethyl)phenyl]acetamide], the 50% inhibitory concentration (IC50) fell in the range of 50 to 500 nM.
With `Nc1nc(Cl)c(C=O)c(OCC(=O)Nc2cccc(C(F)(F)F)c2)n1` [Example 50, 2-[(2-amino-6-chloro-5-formylpyrimidin-4-yl)oxy]-N-[3-(trifluoromethyl)phenyl]acetamide], the IC50 was 50 to 500 nM.
`CSc1nc(N)nc(N(C)[C@@H](CCCCNC(=O)OCc2ccccc2)C(=O)Nc2cccc(C(F)(F)F)c2)c1C#N` [Example 153, N~2~-[2-amino-5-cyano-6-(methylthio)pyrimidin-4-yl]-N~2~-methyl-N~6~-{[(phenylmethyl)oxy]carbonyl}-N-[3-(trifluoromethyl)phenyl]-L-lysinamide]: the IC50 is greater than 2000 nM.
As for `CSc1nc(N)nc(OCC(=O)Nc2cccc(C(F)(F)F)c2)c1CO` [Example 56, 2-{[2-amino-5-(hydroxymethyl)-6-(methylthio)pyrimidin-4-yl]oxy}-N-[3-(trifluoromethyl)phenyl]acetamide], the IC50 is 500 to 2000 nM.
For `Nc1nc(NCC(=O)Nc2cccc(C(F)(F)F)c2)c2cn[nH]c2n1` [Example 57, N^2-(6-amino-1H-pyrazolo[3,4-d]pyrimidin-4-yl)-N-[3-(trifluoromethyl)phenyl]glycinamide] the value was 500 to 2000 nM.
Consider `CCN(CC)CCOc1cccc(NC(=O)[C@H](C)Nc2nc(N)nc(SC)c2C#N)c1` [Example 92, N^2-[2-amino-5-cyano-6-(methylthio)pyrimidin-4-yl]-N-(3-{[2-(diethylamino)ethyl]oxy}phenyl)-L-alaninamide], for which the half-inhibitory concentration (IC50) was greater than 2000 nM.
Next, `CSc1nc(N)nc(N[C@@H](CCCNC(C)=O)C(=O)Nc2cccc(C(F)(F)F)c2)c1C#N` [Example 123, N^5-acetyl-N^2-[2-amino-5-cyano-6-(methylthio)pyrimidin-4-yl]-N-[3-(trifluoromethyl)phenyl]-L-ornithinamide]: greater than 2000 nM.
For `COc1nc(N)nc(N(C)[C@@H](C)C(=O)Nc2cccc(C(F)(F)F)c2)c1C#N` [Example 119, N^2-[2-amino-5-cyano-6-(methyloxy)pyrimidin-4-yl]-N^2-methyl-N-[3-(trifluoromethyl)phenyl]-L-alaninamide], the IC50 was greater than 2000 nM.
For the molecule `CNc1nc(N)nc(SCC(=O)Nc2cccc(C(F)(F)F)c2)c1C#N` [Example 61, 2-{[2-amino-5-cyano-6-(methylamino)pyrimidin-4-yl]thio}-N-[3-(trifluoromethyl)phenyl]acetamide], the IC50 was in the range of 500 to 2000 nM.
Turning to `CCOc1nc(N)nc(N[C@@H](CCCNC(=O)OC(C)(C)C)C(=O)Nc2cccc(C(F)(F)F)c2)c1C#N` [Example 128, 1,1-dimethylethyl((4S)-4-{[2-amino-5-cyano-6-(ethyloxy)pyrimidin-4-yl]amino}-5-oxo-5-{[3-(trifluoromethyl)phenyl]amino}pentyl)carbamate], the IC50 is greater than 2000 nM.
Turning to `CCOc1nc(N)nc(N[C@@H](COCc2ccccc2)C(=O)Nc2cccc(C(F)(F)F)c2)c1C#N` [Example 151, N~2~-[2-amino-5-cyano-6-(ethyloxy)pyrimidin-4-yl]-O-(phenylmethyl)-N-[3-(trifluoromethyl)phenyl]-L-serinamide], the half-inhibitory concentration (IC50) is greater than 2000 nM.
For the molecule `CCOc1nc(N)nc(N[C@@H](CCCNC(C)=O)C(=O)Nc2cccc(C(F)(F)F)c2)c1C#N` [Example 186, N~5~-acetyl-N~2~-[2-amino-5-cyano-6-(ethyloxy)pyrimidin-4-yl]-N-[3-(trifluoromethyl)phenyl]-L-ornithinamide], the 50% inhibitory concentration (IC50) is greater than 2000 nM.
For the molecule `N#Cc1c(SCC(=O)Nc2cccc(C(F)(F)F)c2)nc(N)nc1N1CCOCC1` [Example 84, 2-[(2-amino-5-cyano-6-morpholin-4-ylpyrimidin-4-yl)thio]-N-[3-(trifluoromethyl)phenyl]acetamide], the IC50 was greater than 2000 nM.
For `CSc1nc(N)nc(N(C)[C@@H](C)c2nc3ccc(C(F)(F)F)cc3[nH]2)c1C#N` [Example 104, 2-amino-4-(methylthio)-6-(methyl{(1S)-1-[6-(trifluoromethyl)-1H-benzimidazol-2-yl]ethyl}amino)pyrimidine-5-carbonitrile], the half-inhibitory concentration (IC50) is greater than 2000 nM.
For `COc1nc(N)nc(N[C@@H](C)C(=O)Nc2cccc(C(F)(F)F)c2)c1C#N` [Example 78, N^2-[2-amino-5-cyano-6-(methyloxy)pyrimidin-4-yl]-N-[3-(trifluoromethyl)phenyl]-L-alaninamide] the value was greater than 2000 nM.
